Assay results taken from patent US8236756B2, “Prodrugs cleavable by CD26” (Consejo Superior de Investigaciones Clentificas (CSIC), priority 2003, dated 2012).

Tests used:
[1] = Conversion of prodrugs to parent compound by human serum diluted in PBS; assay type: in vitro ADME; conditions: 50 μM; 20% human serum in PBS (FIG. 6)
Description: Human and bovine serum were incubated for 3 hr, 6 hr and/or 24 hr at 37° C. in the presence of 50 μM CAM-405. The sera were diluted in PBS at a final concentration of 0.5, 1, 2.5 or 5%. […] The longer the incubation time, and the higher the serum concentration used, the faster the conversion of CAM-405 to CAM-212 occurred (FIG. 4). As also noted for CD26, HS- and BS-catalysed reaction slowed down in function of time, and was not linearly proportional with serum concentration (FIG. 4). These findings provide again evidence for a pronounced feed-back inhibition of dipeptidyl-peptidase activity in human and bovine serum by the released Val-Pro dipeptide. HS was more efficient in converting CAM-405 to CAM-212 than BS (FIG. 4). Since 1% HS is able to hydrolyse ˜20% of 50 μM CAM-405 within 3 hrs of incubation, it could be calculated that undiluted serum would have been able to convert this prodrug amount to its parent compound at a hundred fold higher speed, that is, within 1.8 min, provided that no feed-back inhibition would have occurred (as expected in the intact organism where release of Pro-Val would immediately result in disappearance from the plasma due to several mechanisms including organ uptake, renal excretion, etc.).
Only a very limited amount of NAP-TSAO (but not D-Pro-NAP-TSAO) had been detected (FIG. 6).
Ten percent BS or HS converted 40 to 70% of PI-2 to PI-1 in one hour (FIG. 10). Two percent BS and HS converted PI-2 to PI-1 by 8% and 25%, respectively. After 4 hrs, 35% and 95% of compound was hydrolyzed by BS and HS, respectively (FIG. 11).
The TSAO derivatives depicted in FIG. 1 can be synthesised as described below. GlyPro-pNA (GP-pNA), Diprotin A and Val-Pro were purchased from Sigma-Aldrich (Bornem, Belgium). CD26 was purified as described before [De Meester et al. J. Immunol. Methods (1996), 189: 99-105]. Foetal bovine serum (FBS) was obtained from Integro (Dieren, The Netherlands). Human serum represented a pooled serum that was derived from 10 healthy volunteers (blood donors). Human lymphocyte CEM cells were derived from the ATCC (Rockville, Md.).

[2] = target: T1, purified CD26 (Homo sapiens, UniProt P27487); assay: Conversion of peptide prodrugs to parent compound by purified CD26 (HPLC); assay type: biochemical; conditions: for Conversion % to parent compound by purified CD26, 1 h / Conversion % to parent compound by purified CD26, 4 h / Conversion % to parent compound by purified CD26, 24 h: Table 1
T1 construct: made in house
Description: To reveal whether CD26 recognizes such synthetic di/tripeptide derivatives of lipophilic nucleoside analogues as a substrate, 50 μM CAM-405 or CAM-431 was exposed to 5.7 mUnits of purified CD26, and the conversion of CAM-405 or CAM-431 to respectively CAM-212 or CAM-403 (Val-NAP-TSAO) was recorded in function of incubation time by HPLC analysis. […] Within the first 10 min of the reaction, at least 20% of CAM-405 had been converted to CAM-212, fifty percent of the TSAO dipeptide derivative was converted to CAM-212 within 30 min of the reaction and ˜67% of CAM-405 was hydrolyse after 60 min. Thus, the reaction rate started already to slow down after the first 10 min of drug exposure (FIG. 2). Most likely, the release of the reaction product Val-Pro dose-dependently feed-back inhibited the CD26-catalysed dipeptidyl-peptidase reaction. […] Thus, in the presence of 50 μM CAM-405, hydrolysis of 50% of CAM-405 to CAM-212 results in the appearance of 25 μM Val-Pro, that is a concentration that (feed-back) inhibits the CD26 reaction by ˜50%. These findings explain why the CD26-catalysed reaction levels-off shortly after the start of the exposure of the drug to CD26. […] Thus, a further level of modulation of the rate of prodrug release can be introduced by choosing a dipeptide moiety that competes for the active site of CD26, until the dipeptide has diffused from the tissue wherein CD26 is present. The inhibitory activity of any dipeptide can be evaluated by the above mentioned assay.
The conversion rate in function of time is given in Table 1 for NAP-TSAO-dipeptides where the dipeptide consists of: Val-Pro, Val-D-Pro, Asp-Pro, Lys-Pro, Tyr-Pro, Gly-Pro, Val-4-hydroxyPro, Gly-3,4-dihydroxyPro, but also Val-Gly, Val-Ala, Val-Leu and Val-Phe. It is clear that the conversion rate to the parent NAP-TSAO differs depending the nature of the dipeptide. Also, when the terminal amine of the dipeptide has been blocked by a lipophilic group (i.e. methyl, Z or Fmoc), the prodrug looses measurable substrate activity for CD26.
The conversion rate in function of time is given in Table 2 for tetrapeptide NAP-TSAO compounds where the tetrapeptide consists of: Val-Pro-Val-Pro [SEQ ID no:6] (CAM 467), Val-Ala-Val-Pro [SEQ ID no:7] (CAM 473) or Lys-Pro-Asp-Pro [SEQ ID no:8] (CAM 477). […] Only traces of dipeptide prodrug (CAM 405) is seen as intermediate in the conversion of the tetrapeptide CAM 473 to NAP-TSAO.
All enzyme activity assays were performed in Eppendorf tubes on a heating block at 37° C. To each tube were added 32 μl CD26 (at a final concentration of 1.5 milliUnits) or 10 μl foetal bovine serum (BS) (final concentration: 2.5% BS in PBS; preheated at 56° C. for 30 min) or 10 μl human serum (HS) (final concentration: 2.5% HS in PBS), 40 μl of appropriate concentrations of inhibitor (Diprotin A) solution in PBS (for the exact concentrations, see the legend to FIG. 5), CAM-405 (the substrate of the reaction) at […] (final concentration) and PBS to reach a total volume of 400 μl. The pH of the reaction mixture was 7.5, which is virtually identical to the physiological pH of plasma. The reaction was started by the addition of the enzyme or serum and carried out at 37° C. After 5 hr, 100 μl reaction mixture was taken from the Eppendorf tube and added to 200 μl cold methanol to precipitate the proteins. After 10 min standing on ice, the contents of the tubes were centrifuged and the supernatants analysed by HPLC on a reverse phase column (RP-8, Merck Laboratories). CAM-405 was separated from CAM-212 (the product of the reaction) by a gradient of 50 mM sodium phosphate+5 mM heptane sulfonic acid pH 3.2 (Buffer A) and acetonitrile (Buffer B) as follows: Buffer A: 98%+2% Buffer B, 2 min; linear gradient to 20% Buffer. […]

[3] = Solubility in Milli-Q water; assay type: physicochemical; conditions: 1 mg/ml in Milli-Q water; 2 × 10 sec sonication, 4 days shaking, room temperature; centrifugation, U.V. spectrum
Source text: It is also clear that the nature of the dipeptide moiety present on NAP-TSAO markedly affect prodrug solubility in water.

T1 sequence (P27487 whole entry): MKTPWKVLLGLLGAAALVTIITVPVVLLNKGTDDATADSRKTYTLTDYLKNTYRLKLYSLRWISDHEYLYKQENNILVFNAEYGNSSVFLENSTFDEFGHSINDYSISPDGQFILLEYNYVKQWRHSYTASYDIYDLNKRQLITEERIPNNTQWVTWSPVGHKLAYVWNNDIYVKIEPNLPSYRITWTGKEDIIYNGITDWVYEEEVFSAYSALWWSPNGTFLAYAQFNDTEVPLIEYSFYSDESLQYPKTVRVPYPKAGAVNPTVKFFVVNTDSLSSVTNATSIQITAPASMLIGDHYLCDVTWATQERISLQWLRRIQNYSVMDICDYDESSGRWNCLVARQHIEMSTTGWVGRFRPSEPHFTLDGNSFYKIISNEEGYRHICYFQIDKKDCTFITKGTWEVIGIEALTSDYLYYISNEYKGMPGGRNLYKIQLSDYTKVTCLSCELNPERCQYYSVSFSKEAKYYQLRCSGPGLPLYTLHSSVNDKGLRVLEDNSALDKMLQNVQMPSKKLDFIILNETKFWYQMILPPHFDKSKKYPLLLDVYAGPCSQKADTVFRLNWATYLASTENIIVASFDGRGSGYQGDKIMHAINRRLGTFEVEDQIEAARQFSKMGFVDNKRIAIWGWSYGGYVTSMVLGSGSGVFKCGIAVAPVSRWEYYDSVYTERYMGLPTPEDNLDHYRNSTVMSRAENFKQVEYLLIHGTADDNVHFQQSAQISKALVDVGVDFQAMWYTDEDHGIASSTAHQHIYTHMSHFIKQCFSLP

SMILES | Conversion by 20% human serum, in words [1] | Conversion % to parent compound by purified CD26, 1 h ([2]; purified CD26 1.5 mUnits, 1 h) | Conversion % to parent compound by purified CD26, 4 h ([2]; purified CD26 1.5 mUnits, 4 h) | Conversion % to parent compound by purified CD26, 24 h ([2]; purified CD26 1.5 mUnits, 24 h) | Spectrum (~265 nm) [3] | % conversion to parent compound by purified CD26, 1 h ([2]; Table 2, purified CD26 1.5 mUnits, 1 h) | % conversion to parent compound by purified CD26, 4 h ([2]; Table 2, purified CD26 1.5 mUnits, 4 h) | % conversion to parent compound by purified CD26, 24 h ([2]; Table 2, purified CD26 1.5 mUnits, 24 h) | Conversion / substrate activity with purified CD26, in words ([2]; purified CD26)
Cc1cn(C2OC(CO[Si](C)(C)C(C)(C)C)C3(OS(=O)(=O)C=C3N)C2O[Si](C)(C)C(C)(C)C)c(=O)n(CCCNC(=O)C(Cc2ccccc2)NC(=O)C(N)C(C)C)c1=O (stereo not drawn) [CAM-428, H-Val-Phe-NAP-TSAO] | convert to a limited extent | 0% | 0% | 0% | – | – | – | – | –
Cc1cn(C2OC(CO[Si](C)(C)C(C)(C)C)C3(OS(=O)(=O)C=C3N)C2O[Si](C)(C)C(C)(C)C)c(=O)n(CCCNC(=O)[C@H](C)NC(=O)[C@@H](N)C(C)C)c1=O (stereo partly drawn) [CAM-424, H-Val-Ala-NAP-TSAO] | – | 0% | 6.5% | 35% | 0.650 | 0% | 6.5% | 35% | –
Cc1cn(C2OC(CO[Si](C)(C)C(C)(C)C)C3(OS(=O)(=O)C=C3N)C2O[Si](C)(C)C(C)(C)C)c(=O)n(CCCNC(=O)CNC(=O)[C@@H](N)C(C)C)c1=O (stereo partly drawn) [CAM-422, H-Val-Gly-NAP-TSAO] | efficiently (but solely) converted to Gly-NAP-TSAO | 0% | 0% | 0% | 1.886 | – | – | – | –
Cc1cn(C2OC(CO[Si](C)(C)C(C)(C)C)C3(OS(=O)(=O)C=C3N)C2O[Si](C)(C)C(C)(C)C)c(=O)n(CCCNC(=O)[C@H]2CCCN2C(=O)[C@@H](N)C(C)C)c1=O (stereo partly drawn) [CAM-430, H-Val-D-Pro-NAP-TSAO] | very stable | 0% | ~1% | ~2% | 3.220 | – | – | – | –
Cc1cn(C2OC(CO[Si](C)(C)C(C)(C)C)C3(OS(=O)(=O)C=C3N)C2O[Si](C)(C)C(C)(C)C)c(=O)n(CCCNC(=O)C(CC(C)C)NC(=O)C(N)C(C)C)c1=O (stereo not drawn) [CAM-426, H-Val-Leu-NAP-TSAO] | convert to a limited extent | 0% | 0% | 0% | – | – | – | – | –
Cc1cn(C2OC(CO[Si](C)(C)C(C)(C)C)C3(OS(=O)(=O)C=C3N)C2O[Si](C)(C)C(C)(C)C)c(=O)n(CCCNC(=O)C(NC(=O)C2CCCN2C(=O)C(N)C(C)C)C(C)C)c1=O (stereo not drawn) [CAM-431, H-Val-Pro-Val-NAP-TSAO] | very efficiently converted predominantly to Val-TSAO | – | 51% | ~70% | – | – | – | – | hydrolyse by CD26
Cc1cn([C@@H]2O[C@H](CO[Si](C)(C)C(C)(C)C)[C@@]3(OS(=O)(=O)C=C3N)[C@H]2O[Si](C)(C)C(C)(C)C)c(=O)n(C)c1=O [m-3T-TSAO, 3-methyl-TSAO-T, reference compound] | – | – | – | – | 0.100 | – | – | – | –
